By IC50 is commonly meant the concentration that gives 50% inhibition.

The structures appear in SMILES notation. Counter-ions that a name gives are not always drawn.

In one test the target is T1, Human Factor D (Homo sapiens, UniProt P00746).
T1 construct: purified from human serum; purchased Complement Technology, Inc; host or cells: human serum (natural protein, not recombinant)
T1 sequence (P00746 26-253): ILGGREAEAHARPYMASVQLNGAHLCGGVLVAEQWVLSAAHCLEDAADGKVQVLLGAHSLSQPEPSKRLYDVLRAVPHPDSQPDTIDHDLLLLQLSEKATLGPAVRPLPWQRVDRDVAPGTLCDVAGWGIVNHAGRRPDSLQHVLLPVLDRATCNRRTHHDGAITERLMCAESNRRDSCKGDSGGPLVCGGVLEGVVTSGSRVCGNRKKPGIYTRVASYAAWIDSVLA
Briefly: Human Factor D Assay. In kind it is biochemical. To be noted: Human Factor D 80 nM, substrate Z-L-Lys-SBzl, assay of Example 3; read-out: IC50 (Stars). An outline of the steps: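 Serum-purified human factor D (80 nM final) preincubated 5 min at room temperature with test compound in 50 mM Tris, 1M NaCl, pH 7.5. Z-L-Lys-SBzl substrate and DTNB then added, each at 100 μM final. IC50 from nonlinear regression of reaction rate against compound concentration.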
Regarding `CC(=O)c1nn(CC(=O)N2C[C@H](F)C[C@H]2C(=O)Oc2cccc(Br)n2)c2ccc(-c3cnc(C)nc3)cc12` [Compound 37, (2S,4R)-6-Bromopyridin-2-yl 1-(2-(3-acetyl-5-(2-methylpyrimidin-5-yl)-1H-indazol-1-yl)acetyl)-4-fluoropyrrolidine-2-carboxylate], the IC50 is 1 to 10 µM. Turning to `CC(=O)c1nn(CC(=O)N2[C@H](C(=O)NCCc3ccccn3)C[C@@]3(C)C[C@@H]23)c2c(C)cc(-c3cnc(C)nc3)cc12` [Compound 6, (1R,3S,5R)-2-(2-(3-Acetyl-7-methyl-5-(2-methylpyrimidin-5-yl)-1H-indazol-1-yl)acetyl)-5-methyl-N-(2-(pyridin-2-yl)ethyl)-2-azabicyclo[3.1.0]hexane-3-carboxamide], the 50% inhibitory concentration (IC50) was below 1 µM. Still for that read-out and setting: then `CC(=O)c1nn(CC(=O)N2[C@H](C(=O)N[C@@H](C)CCc3ccccc3)C[C@@]3(C)C[C@@H]23)c2ccc(-c3cnc(C)nc3)cc12` [Compound 12, (1R,3S,5R)-2-(2-(3-Acetyl-5-(2-methylpyrimidin-5-yl)-1H-indazol-1-yl)acetyl)-5-methyl-N—((S)-4-phenylbutan-2-yl)-2-azabicyclo[3.1.0]hexane-3-carboxamide], with below 1 µM.

The test is the same for the next values; noted with them: Human Factor D 80 nM, substrate Z-L-Lys-SBzl; Table 2; read-out: IC50 (Stars).
As to `CC(=O)c1nn(CC(=O)N2[C@H](C(=O)Nc3nc(Br)c(F)cc3C)C[C@@]3(C)C[C@@H]23)c2c(C)cc(-c3cnc(C(C)O)nc3)cc12` (stereo partly drawn) [Compound 96, (1R,3S,5R)-2-(2-(3-acetyl-5-(2-(1-hydroxyethyl)pyrimidin-5-yl)-7-methyl-11H-indazol-1-yl)acetyl)-N-(6-bromo-5-fluoro-3-methylpyridin-2-yl)-5-methyl-2-azabicyclo[3.1.0]hexane-3-carboxamide], the IC50 was below 1 µM.

As to `CC(=O)c1nn(CC(=O)N2C[C@@H](C(C)(C)N)C[C@H]2C(=O)Nc2nc(C(F)(F)F)ccc2C)c2c(C)cc(-c3cnc(C)nc3)cc12` [Compound 56, (2S,4S)-1-(2-(3-acetyl-7-methyl-5-(2-methylpyrimidin-5-yl)-1H-indazol-1-yl)acetyl)-4-(2-aminopropan-2-yl)-N-(3-methyl-6-(trifluoromethyl)pyridin-2-yl)pyrrolidine-2-carboxamide hydrochloride], the IC50 was below 1 µM. `CC(=O)c1nn(CC(=O)N2[C@H](C(=O)N[C@H](C)C(F)(F)F)C[C@@]3(C)C[C@@H]23)c2c(C)cc(-c3cnc(C)nc3)cc12` [Compound 152, (1R,3S,5R)-2-{2-[3-acetyl-7-methyl-5-(2-methylpyrimidin-5-yl)indazol-1-yl]acetyl}-5-methyl-N-[(2R)-1,1,1-trifluoropropan-2-yl]-2-azabicyclo[3.1.0]hexane-3-carboxamide]: the IC50 was below 1 µM. The same measure, in the same setting: the value for `CC(=O)c1nn(CC(=O)N2[C@H](C(=O)NC(C)c3cccnn3)C[C@@]3(C)C[C@@H]23)c2c(C)cc(-c3cnc(C)nc3)cc12` (stereo partly drawn) [Compound 189, (1R,3S,5R)-2-{2-[3-acetyl-7-methyl-5-(2-methylpyrimidin-5-yl)indazol-1-yl]acetyl}-5-methyl-N-[1-(pyridazin-3-yl)ethyl]-2-azabicyclo[3.1.0]hexane-3-carboxamide] was below 1 µM; that for `CC(=O)c1cn(CC(=O)N2C[C@H]3C[C@H]3[C@H]2C(=O)Nc2nc(Br)c(F)cc2C)c2c(C)cc(-c3cnc(CO)nc3)cc12` [Compound 83, (1R,2S,5S)-3-(2-(3-acetyl-5-(2-(hydroxymethyl)pyrimidin-5-yl)-7-methyl-11H-indol-1-yl)acetyl)-N-(6-bromo-5-fluoro-3-methylpyridin-2-yl)-3-azabicyclo[3.1.0]hexane-2-carboxamide] was below 1 µM. On the same count and under the same terms, the value for `CC(=O)c1nn(CC(=O)N2[C@H](C(=O)Nc3nc(Br)ccc3C3CC3)C[C@@]3(C)C[C@@H]23)c2c(C)cc(-c3cnc(CO)nc3)cc12` [Compound 66, (1R,3S,5R)-2-(2-(3-acetyl-5-(2-(hydroxymethyl)pyrimidin-5-yl)-7-methyl-11H-indazol-1-yl)acetyl)-N-(6-bromo-3-cyclopropylpyridin-2-yl)-5-methyl-2-azabicyclo[3.1.0]hexane-3-carboxamide] was below 1 µM; that for `CC(=O)c1cn(CC(=O)N2[C@H](C(=O)Nc3nccc(C(F)(F)F)n3)C[C@@]3(C)C[C@@H]23)c2c(C)cc(-c3cnc(C)nc3)cc12` [Compound 235, (1R,3S,5R)-2-(2-(3-acetyl-7-methyl-5-(2-methylpyrimidin-5-yl)-1H-indol-1-yl)acetyl)-5-methyl-N-(4-(trifluoromethyl)pyrimidin-2-yl)-2-azabicyclo[3.1.0]hexane-3-carboxamide] was below 1 µM; that for `CC(=O)c1nn(CC(=O)N2[C@H]3CC[C@H](C3)[C@H]2C(=O)Nc2nc(Br)c(F)cc2C)c2c(C)cc(-c3cnc(C)nc3)cc12` [Compound 101, (1S,3S,4R)-2-(2-(3-Acetyl-7-methyl-5-(2-methylpyrimidin-5-yl)-1H-indazol-1-yl)acetyl)-N-(6-bromo-5-fluoro-3-methylpyridin-2-yl)-2-azabicyclo[2.2.1]heptane-3-carboxamide] was below 1 µM. On the same count and under the same terms, the value for `CC(=O)c1nn(CC(=O)N2[C@H](C(=O)Nc3nc(C(F)(F)F)ccc3C)C[C@@]3(C)C[C@@H]23)c2c(CF)cc(-c3cnc(C)nc3)cc12` [Compound 237, (1R,3S,5R)-2-(2-(3-acetyl-7-(fluoromethyl)-5-(2-methylpyrimidin-5-yl)-1H-indazol-1-yl)acetyl)-5-methyl-N-(3-methyl-6-(trifluoromethyl)pyridin-2-yl)-2-azabicyclo[3.1.0]hexane-3-carboxamide] was below 1 µM. In the case of `C#CCC(Cc1ccccc1)NC(=O)[C@@H]1C[C@@]2(C)C[C@H]2N1C(=O)Cn1nc(C(C)=O)c2cc(-c3cnc(C)nc3)cc(C)c21` (stereo partly drawn) [Compound 175, (1R,3S,5R)-2-{2-[3-acetyl-7-methyl-5-(2-methylpyrimidin-5-yl)indazol-1-yl]acetyl}-5-methyl-N-(1-phenylpent-4-yn-2-yl)-2-azabicyclo[3.1.0]hexane-3-carboxamide], the IC50 is below 1 µM. For `COCC(Cc1ccccc1)NC(=O)[C@@H]1C[C@@]2(C)C[C@H]2N1C(=O)Cn1nc(C(C)=O)c2cc(-c3cnc(C)nc3)cc(C)c21` (stereo partly drawn) [Compound 172, (1R,3S,5R)-2-{2-[3-acetyl-7-methyl-5-(2-methylpyrimidin-5-yl)indazol-1-yl]acetyl}-N-(1-methoxy-3-phenylpropan-2-yl)-5-methyl-2-azabicyclo[3.1.0]hexane-3-carboxamide], the IC50 is below 1 µM. The same measure, in the same setting: the value for `CC(=O)c1nn(CC(=O)N2[C@H](C(=O)Nc3nc(Br)c(F)cc3C)C[C@@]3(C)C[C@@H]23)c2c(C)cc(-c3cnc(CO)nc3)cc12` [Compound 49, (1R,3S,5R)-2-(2-(3-acetyl-5-(2-(hydroxymethyl)pyrimidin-5-yl)-7-methyl-1H-indazol-1-yl)acetyl)-N-(6-bromo-5-fluoro-3-methylpyridin-2-yl)-5-methyl-2-azabicyclo[3.1.0]hexane-3-carboxamide] was below 1 µM; that for `CC(=O)c1nn(CC(=O)N2[C@H](C(=O)N[C@@H](c3ccccc3)C(F)(F)F)C[C@@]3(C)C[C@@H]23)c2c(C)cc(-c3cnc(C)nc3)cc12` [Compound 85, (1R,3S,5R)-2-{2-[3-acetyl-7-methyl-5-(2-methylpyrimidin-5-yl)indazol-1-yl]acetyl}-5-methyl-N-[(1S)-2,2,2-trifluoro-1-phenylethyl]-2-azabicyclo[3.1.0]hexane-3-carboxamide] was below 1 µM.

(Values after patent publication US20230022157A1 (Achillion Pharmaceuticals, Inc., priority 2018, published 2023).)
